Source: patent US20260096569A1, “EDIBLE COATING WITH ANTIMICROBIAL PROPERTIES” (priority 2021, published 2026)
Entries after “also recorded” stand apart in the source; their conditions may differ. Read-outs that look alike come from different tables or passages of the source.

Tests used:
[1] = system: Colletotrichum; test: Screening for stem end rot (Colletotrichum) infection control, California avocados; type: in vivo
From the text: To screen for infection control of stem end rot (Colletotrichum) with epicatechin, ASM, and MeSA (methyl salicylate), California avocados size 84 were infected with Colletotrichum spores (103 spores/ml) and treated with 0.01% an imidazole antifungal agent, such as Prochloraz, 0.1% epicatechin, 0.01% ASM, or 0.1% MeSA, as indicated. Uninfected and infected controls were not exposed to treatments. […] Disease index is on a scale from 0-1 and takes into account both the percent of fruit infected and the average severity of the infection in the sample group. The average severity is on a scale from 0-4. Percent disease index is calculated as follows: (Percent infected*Average infection severity)/4.

[2] = system: Colletotrichum; test: Salicylic acid, sodium salicylate and chitosan on stem end rot of infected California avocados; type: in vivo
Description: To determine the impact of salicylic acid, sodium salicylate, and chitosan on stem end rot (Colletotrichum), California avocados size 96 were infected with 10^3 Colletotrichum spores and treated with 0.01% of an imidazole antifungal agent, such as Prochloraz, 0.05% salicylic acid, 0.1% salicylic acid, 0.2% salicylic acid, 1% sodium salicylate, or 1% chitosan+5 mM C10 monoglyceride. Uninfected and infected controls were not exposed to treatments. Following treatment, the percent disease index of stem end rot was determined for each avocado. […] However, the 1% chitosan+5 mM C10 monoglyceride treatment sample size was 14 avocados.

[3] = Mixture and carvacrol on avocados: respiration and mass loss; type: in vivo
Description: (§1) Fifty-four avocados were tested per treatment. Avocados were dipped into treatment liquids and allowed to dry. Respiration (CO2 production), mass loss, disease indices of stem end rot and vascular browning were measured. […] The timing of spoilage was affected by treatments (FIG. 14).

[4] = system: stem end rot; test: Mixture and carvacrol on avocados: incidence of stem end rot; type: in vivo; conditions: 10 g/L carvacrol alone
Description: as §1

[5] = system: vascular browning; test: Mixture and carvacrol on avocados: incidence of vascular browning; type: in vivo; conditions: 10 g/L carvacrol alone
Description: as §1

[6] = Organic mixture and carvacrol on wounded organic lemons: mass loss and skin damage; type: in vivo; conditions: carvacrol alone (5 g/L carvacrol+0.25 g/L sodium stearate)
From the text: To determine the impact of an organic mixture of glycerol monostearate and sodium stearate mixed with carvacrol on mass loss and mold incidence in organic lemons, unwaxed California organic lemons sized 140 were exposed to 30 g/L an organic mixture of glycerol monostearate and sodium stearate mixed, 30 g/L an organic mixture of glycerol monostearate and sodium stearate+5 g/L carvacrol, or 5 g/L carvacrol+0.25 g/L sodium stearate, or were untreated. Batches of 140 lemons per condition were used. Lemons were physically wounded with the stem of another lemon, dipped into a treatment or left untreated, and dried in ambient conditions. Mass loss and disease incidence (% of group with mold) were measured. The addition of carvacrol to an organic mixture of glycerol monostearate and sodium stearate mixed with carvacrol increased mass loss factor to 1.7×compared to the organic mixture of glycerol monostearate and sodium stearate mixed with carvacrol alone, which was 1.3× of the untreated group (FIG. 15A). The addition of carvacrol to an organic mixture of glycerol monostearate and sodium stearate mixed with carvacrol reduced the incidence of mold ˜12% from untreated lemons and 22% from an organic mixture of glycerol monostearate and sodium stearate mixed with carvacrol alone treated lemons after 6.5 days of ambient storage (FIG. 15B).

[7] = Mixture and carvacrol on organic lemons in cold storage: mass loss and quality; type: in vivo; conditions: carvacrol alone (10 g/L carvacrol+50 g/L ethanol), dried in ambient conditions
Description: Batches of 120 lemons per condition were used. Lemons were dipped into a treatment or left untreated, dried in ambient conditions, and stored at 8° C., 80% relative humidity for several weeks. Mass loss was measured.

[8] = Mixture with increasing carvacrol and ethanol on organic lemons: mass loss and quality; type: in vivo; conditions: heated drying in a drying tunnel
Description: Specifically, 1 g/L carvacrol+5 g/L ethanol, 2 g/L carvacrol+10 g/L ethanol, 3 g/L carvacrol+15 g/L ethanol, 6 g/L carvacrol+30 g/L ethanol, or 8 g/L carvacrol+40 g/L ethanol. Batches of 120 lemons per condition were used. Lemons were dipped into a treatment or left untreated, dried in heated conditions in a drying tunnel, and stored at ambient conditions. Mass loss was measured.

[9] = system: Colletotrichum; test: Salicylic acid and chitosan combinations on stem end rot of infected Mexican avocados; type: in vivo; conditions: infected Mexican avocados size 84, 0.2%, compared with the other treatments
Description: To determine the impact of salicylic acid and chitosan combinations on stem end rot (Colletotrichum), Mexican avocados size 84 were infected with 103 Colletotrichum spores and treated with 0.01% of an imidazole antifungal agent, such as Prochloraz, 0.1% low molecular weight chitosan (1 g/L), 0.2% salicylic acid, or 0.2% salicylic acid+0.1% chitosan. Uninfected and infected controls were not exposed to treatments. Following treatment, the percent disease index of stem end rot was determined for each avocado.

[10] = Avocado storage: CO2 production (respiration) and mass loss, salicylic acid; type: in vivo; conditions: Mexican avocados size 60 stored about one month, 0.6 g/L, two days
From the text: (§2) Avocados were Mexican avocados size 60. […] Avocados were monitored for two days for CO2 production (respiration) rate, mass loss, incidence of stem end rot, and severity of stem end rot disease. […] This could be due to changes in the barrier stability or barrier properties when salicylic acid is combined with the mixture of glycerol monostearate and sodium stearate. When comparing the mass loss factor using the salicylic acid+the mixture of glycerol monostearate and sodium stearate to the mixture itself, there was a 0.35× improvement. Severity of stem end rot disease was measured on a 1-4 stem end rot severity scale (STR).

[11] = system: stem end rot; test: Avocado storage: incidence and severity of stem end rot, salicylic acid; type: in vivo; conditions: Mexican avocados size 60, 0.6 g/L salicylic acid, two days
From the text: as §2

[12] = system: Colletotrichum; test: Salicylic acid and pH on stem end rot of infected Mexican avocados; type: in vivo
Description: To determine the impact of salicylic acid and pH on stem end rot (Colletotrichum), Colletotrichum disease indices of avocados were determined with various treatments. […] Mexican avocados size 84 were infected with 103 Colletotrichum spores and treated with 1M NaOH pH 6, 0.01% of an imidazole antifungal agent, such as Prochloraz, 0.2% salicylic acid pH 2.5, or 0.2% salicylic acid pH 6. pH was adjusted with 1M NaOH. Uninfected and infected controls were not exposed to treatments. Infection rate was near 100% for the water treated control. Treatment of infected avocados with pH 2.5. […] Treatment with salicylic acid at pH 2.5 reduced percent infection by nearly 70%. However, the percent disease index remained at 100% during treatment with salicylic acid at a pH of 6 (FIG. 7).

[13] = Avocado storage, five days: CO2 production (respiration), salicylic acid and mixture; type: in vivo; conditions: Mexican avocados size 60, 0.6 g/L or 2.0 g/L salicylic acid
From the text: (§3) To determine the impact of salicylic acid and a mixture of 94% glycerol monostearate and a 6% fatty acid salt combinatorial treatment on avocado, Mexican avocados size 60 were exposed to 0.6 g/L salicylic acid, 2.0 g/L salicylic acid, 30 g/L a mixture of glycerol monostearate and sodium stearate, or 0.6 g/L salicylic acid+30 g/L a mixture of glycerol monostearate and sodium stearate treatments. To treat, avocados were removed form cold storage and left at room temperature for four hours. Avocados were then dipped in treatments as indicated and dried in a drying tunnel. Uninfected controls were not exposed to treatments. Avocados were monitored for five days for CO2 production (respiration) rate, mass loss, incidence of stem end rot, and severity of stem end rot disease on a 1-4 stem end rot severity scale (STR). The experiment was concluded when untreated avocados reached a ripeness of <35 shore. […] This may be due to changes in barrier stability or properties.

[14] = system: stem end rot; test: Avocado storage, five days: incidence and severity of stem end rot; type: in vivo; conditions: Mexican avocados size 60, five days
From the text: as §3

[15] = system: Colletotrichum; test: Sequential salicylic acid and mixture treatments on stem end rot of infected Mexican avocados; type: in vivo
Description: The pH was adjusted with 1M NaOH. Salicylic acid treatments were performed and dried before subsequent treatments with the mixture of glycerol monostearate and sodium stearate were performed for combinatorial treatments. Controls with salicylic acid treatment and a subsequent treatment with water were also performed. Uninfected controls were not exposed to treatments. Following treatment, the disease index of stem end rot was determined for each avocado. […] Salicylic acid was effective in treatments with salicylic acid first and the mixture of glycerol monostearate and sodium stearate treatment second (FIG. 9).

[16] = Viscosity and pH of salicylic acid and mixture combinations; type: physicochemical; conditions: salicylic acid 0.15-1.0 g/L in water
From the text: The viscosity decreased as the mixture concentration increased, and as the salicylic acid concentration increased (FIG. 11A). […] The maximum amount of salicylic acid that could be added was about 2% of the weight of the mixture (FIG. 10).

[17] = system: Colletotrichum; conditions: cited from earlier work
[18] = infected California avocados size 84, treatment 0.01%

Structure (SMILES): CSC(=O)c1cccc2nnsc12 [ASM, Acibenzolar-S-Methyl]
- percent disease index for stem end rot [1, 18]: significantly smaller disease indices compared to the infected control

Structure (SMILES): COC(=O)c1ccccc1O [MeSA, methyl salicylate]
- percent disease index for stem end rot ([1]; infected California avocados size 84, treatment 0.1%): no observed effect

Structure (SMILES): CCCN(CCOc1c(Cl)cc(Cl)cc1Cl)C(=O)n1ccnc1 [Prochloraz]
- percent disease index for stem end rot [1, 18]: effective at decreasing the observed disease index
- percent disease index of stem end rot ([2]; infected California avocados size 96, 0.01%): effective at decreasing the disease index compared to the infected control

Structure (SMILES): Cc1ccc(C(C)C)cc1O [carvacrol]
- respiration (CO2 production) ([3]; California avocados sized 96, 10 g/L carvacrol alone): may have accelerated respiration
- mass loss ([3]; California avocados sized 96, 10 g/L carvacrol, versus untreated avocados): negligible effect on mass loss
- disease incidence of stem end rot [4]: almost eliminated disease incidence
- disease incidence of vascular browning [5]: almost eliminated disease incidence
- damage to lemon skin [6]: damaged the lemon skin
- damage to lemon skin [7]: skin burns; also recorded: damaged the lemon skin
- carvacrol lemon skin burns [8]: prevented carvacrol lemon skin burns

Structure (SMILES): O=C(O)c1ccccc1O [salicylic acid]
- percent disease index of stem end rot ([2]; infected California avocados size 96, 0.05%): reduced the stem end rot disease index
- percent disease index of stem end rot ([2]; infected California avocados size 96, 0.1%): reduced the stem end rot disease index
- percent disease index of stem end rot ([2]; infected California avocados size 96, 0.2%): reduced the stem end rot disease index; also recorded: most effective
- percent disease index of stem end rot [9]: greatest effect
- CO2 production (respiration) rate [10]: increased the respiration compared to the control
- incidence of stem end rot [11]: not incidence
- severity of stem end rot disease (1-4 STR scale) [11]: reduce the severity
- reduction of percent infection ([12]; infected Mexican avocados size 84, 0.2% salicylic acid pH 2.5): ~70%
- percent disease index ([12]; infected Mexican avocados size 84, 0.2% salicylic acid pH 6): 100%
- CO2 production (respiration) [13]: did not increase CO2 production (respiration) compared to the control
- incidence of stem end rot [14]: slight reductions
- severity of stem end rot (1-4 STR scale) [14]: slight reductions
- percent disease index of stem end rot versus infected water control ([15]; infected Mexican avocados size 84, decreased concentration (0.06%), pH 2.3): more effective than then infected water control treatment
- percent disease index of stem end rot, effect of decreasing concentration ([15]; infected Mexican avocados size 84, from 0.2% to 0.06%, pH 2.3): reduced the effectiveness of the treatment
- percent disease index of stem end rot ([15]; salicylic acid treatment dried, then a second treatment (mixture or water)): reduced the percent disease indices
- pH in water [16]: 2-2.5
- germination ([17]; pH 2.5): inhibits germination
- germination ([17]; pH raised to pH 6): loses its inhibitory effect

Structure (SMILES): O=C([O-])c1ccccc1O.[Na+] [sodium salicylate]
- percent disease index of stem end rot ([2]; infected California avocados size 96, 1%): did not significantly reduce the disease index
